pIC50: −log10 of the molar value.
What was measured:
Cytochrome P450 2C9 = Cytochrome P450 2C9 (Homo sapiens, UniProt P11712); details: bti-tn-5b1-4; note: in other assays of this panel Not Active means under 50% inhibition at 10 µM
[1] = DRUGMATRIX: Glutamate, NMDA, Phencyclidine radioligand binding (ligand: [3H] TCP); type: cell membranes, Rattus norvegicus, Wistar, Cerebral cortex, Membrane; details: Not Active = under 50% inhibition at 10 µM
[2] = DRUGMATRIX: Atrial Natriuretic Factor (ANF) radioligand binding (ligand: [125I] ANF (rat)); type: cell membranes, Cavia porcellus, Dunkin-Hartley, Adrenal gland, Membrane; details: Not Active = under 50% inhibition at 10 µM
[3] = biological target: C-C chemokine receptor type 2 (Homo sapiens, UniProt P41597); type: cell membranes, CHO-K1, Membrane; details: cho-k1; note: in other assays of this panel Not Active means under 50% inhibition at 10 µM
Chain of C-C chemokine receptor type 2 (P41597 whole entry): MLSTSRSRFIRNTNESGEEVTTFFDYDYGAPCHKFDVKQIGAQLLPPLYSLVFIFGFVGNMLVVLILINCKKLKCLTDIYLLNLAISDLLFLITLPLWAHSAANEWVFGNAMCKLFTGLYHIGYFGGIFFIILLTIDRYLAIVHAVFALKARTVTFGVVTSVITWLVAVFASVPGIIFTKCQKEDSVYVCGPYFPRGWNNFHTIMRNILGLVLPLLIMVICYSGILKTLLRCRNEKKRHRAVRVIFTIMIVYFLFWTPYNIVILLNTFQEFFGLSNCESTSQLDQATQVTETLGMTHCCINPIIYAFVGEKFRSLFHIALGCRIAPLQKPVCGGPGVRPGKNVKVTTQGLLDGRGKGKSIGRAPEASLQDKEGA

[4] = biological target: Mitogen-activated protein kinase 3 (Homo sapiens, UniProt P27361); assay: DRUGMATRIX: Protein Serine/Threonine Kinase, ERK1 enzyme inhibition (substrate: Myelin Basic Protein); design: species or system Escherichia coli; details: Not Active = under 50% inhibition at 10 µM
Chain of Mitogen-activated protein kinase 3 (P27361 whole entry): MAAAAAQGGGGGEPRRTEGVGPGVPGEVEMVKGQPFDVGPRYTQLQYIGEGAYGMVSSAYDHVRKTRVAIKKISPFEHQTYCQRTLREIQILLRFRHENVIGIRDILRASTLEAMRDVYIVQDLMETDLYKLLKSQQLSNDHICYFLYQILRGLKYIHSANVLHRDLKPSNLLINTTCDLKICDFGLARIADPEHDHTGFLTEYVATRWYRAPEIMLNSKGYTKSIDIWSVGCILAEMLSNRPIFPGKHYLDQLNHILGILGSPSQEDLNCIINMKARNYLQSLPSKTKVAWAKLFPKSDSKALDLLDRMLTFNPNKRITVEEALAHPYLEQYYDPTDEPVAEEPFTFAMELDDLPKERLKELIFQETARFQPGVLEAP

[5] = biological target: Mitogen-activated protein kinase 1 (Homo sapiens, UniProt P28482); assay: DRUGMATRIX: Protein Serine/Threonine Kinase, ERK2 enzyme inhibition (substrate: Myelin Basic Protein); design: species or system Escherichia coli; details: Not Active = under 50% inhibition at 10 µM
Chain of Mitogen-activated protein kinase 1 (P28482 whole entry): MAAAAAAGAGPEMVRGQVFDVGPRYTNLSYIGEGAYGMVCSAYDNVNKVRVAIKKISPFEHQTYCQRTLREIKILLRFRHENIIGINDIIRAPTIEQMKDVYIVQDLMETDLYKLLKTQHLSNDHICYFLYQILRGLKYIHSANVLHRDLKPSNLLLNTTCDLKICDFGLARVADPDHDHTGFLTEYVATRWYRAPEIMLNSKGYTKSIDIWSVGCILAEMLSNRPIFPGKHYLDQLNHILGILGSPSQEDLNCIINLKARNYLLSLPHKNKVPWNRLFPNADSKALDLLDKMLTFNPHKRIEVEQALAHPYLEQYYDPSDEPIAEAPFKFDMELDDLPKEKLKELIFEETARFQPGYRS

Chain of Cytochrome P450 2C9 (P11712 whole entry): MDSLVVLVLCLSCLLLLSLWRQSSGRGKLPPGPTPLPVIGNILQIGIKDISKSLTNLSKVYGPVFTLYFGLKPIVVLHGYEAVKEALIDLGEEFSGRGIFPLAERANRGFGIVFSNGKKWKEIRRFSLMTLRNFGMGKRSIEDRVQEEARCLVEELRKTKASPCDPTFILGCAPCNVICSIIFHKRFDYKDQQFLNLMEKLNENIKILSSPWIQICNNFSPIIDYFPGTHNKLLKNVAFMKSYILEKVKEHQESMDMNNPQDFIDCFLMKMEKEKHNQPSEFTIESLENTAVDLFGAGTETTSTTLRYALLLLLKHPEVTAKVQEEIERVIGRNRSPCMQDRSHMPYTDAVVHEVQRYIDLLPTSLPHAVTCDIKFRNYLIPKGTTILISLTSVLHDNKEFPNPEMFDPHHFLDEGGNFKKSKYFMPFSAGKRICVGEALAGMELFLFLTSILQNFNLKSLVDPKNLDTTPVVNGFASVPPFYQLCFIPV

Compound | IC50 (Cytochrome P450 2C9) | Ki (Cytochrome P450 2C9) | IC50 [1] | Ki [1] | IC50 [2] | Ki [2] | IC50 [3] | IC50 [4] | IC50 [5] | pIC50 ([5]; read-out: IC50) | Ki [3] | Ki [4] | Ki [5]
Cc1ncc([N+](=O)[O-])n1CCO [METRONIDAZOLE] | Not Active | Not Active | Not Active | Not Active | Not Active | Not Active | Not Active | Not Active | Not Active |  |  |  | 
CC(C)(C(=O)c1cccnc1)c1cccnc1 [METYRAPONE] | Not Active | Not Active | Not Active | Not Active | Not Active | Not Active | Not Active | Not Active | Not Active |  |  |  | 
CC(C)(Oc1ccc(C2CCCc3ccccc32)cc1)C(=O)O (stereo not given) [NAFENOPIN] | Not Active | Not Active | Not Active | Not Active | Not Active | Not Active | Not Active | Not Active |  | 6.09 |  |  | 
CC(C)[C@H]1CC[C@H](C(=O)N[C@H](Cc2ccccc2)C(=O)O)CC1 [NATEGLINIDE] | Not Active | Not Active | Not Active | Not Active | Not Active | Not Active | Not Active | Not Active | Not Active |  |  |  | 
CCN[C@@H]1C[C@H](N)[C@@H](O[C@H]2OC(CN)=CC[C@H]2N)[C@H](O)[C@H]1O[C@H]1OC[C@](C)(O)[C@H](NC)[C@H]1O [NETILMICIN] | Not Active | Not Active | Not Active | Not Active | Not Active | Not Active | Not Active | Not Active | Not Active |  |  |  | 
C#C[C@]1(OC(C)=O)CC[C@H]2[C@@H]3CCC4=CC(=O)CC[C@@H]4[C@H]3CC[C@@]21C [NORETHINDRONE ACETATE] | Not Active | Not Active | Not Active | Not Active | Not Active | Not Active | Not Active | Not Active | Not Active |  |  |  | 
COc1ccc2[nH]c([S+]([O-])Cc3ncc(C)c(OC)c3C)nc2c1 (stereo not given) [OMEPRAZOLE] | Not Active | Not Active | Not Active | Not Active | Not Active | Not Active | Not Active | Not Active | Not Active |  |  |  | 
Cc1nccn1CC1CCc2c(c3ccccc3n2C)C1=O (stereo not given) [ONDANSETRON] | Not Active | Not Active | Not Active | Not Active | Not Active | Not Active | Not Active | Not Active | Not Active |  |  |  | 
CCCCOc1ccc(OCCCN2CCOCC2)cc1 [PRAMOXINE] | Not Active | Not Active | Not Active | Not Active | Not Active | Not Active | Not Active | Not Active | Not Active |  |  |  | 
O=C(C1CCCCC1)N1CC(=O)N2CCc3ccccc3C2C1 (stereo not given) [PRAZIQUANTEL] | Not Active | Not Active | Not Active | Not Active | Not Active | Not Active | Not Active | Not Active | Not Active |  |  |  | 
CCN(CC)CCOC(=O)c1ccc(N)cc1 [PROCAINE] | Not Active | Not Active | Not Active | Not Active | Not Active | Not Active | Not Active | Not Active | Not Active |  |  |  | 
CCCN(CCC)C(=O)C(CCC(=O)O)NC(=O)c1ccccc1 (stereo not given) [PROGLUMIDE] | Not Active | Not Active | Not Active | Not Active | Not Active | Not Active | Not Active | Not Active | Not Active |  |  |  | 
NC(=O)c1cnccn1 [PYRAZINAMIDE] | Not Active | Not Active | Not Active | Not Active | Not Active | Not Active | Not Active | Not Active | Not Active |  |  |  | 
OC(CCN1CCCCC1)(c1ccccc1)C1CCCCC1 (stereo not given) [TRIHEXYPHENIDYL] | Not Active | Not Active | Not Active | Not Active | Not Active | Not Active | Not Active | Not Active | Not Active |  |  |  | 
Cc1cc2cc3c(C)cc(=O)oc3c(C)c2o1 [TRIOXSALEN] | Not Active | Not Active | Not Active | Not Active | Not Active | Not Active | Not Active | Not Active | Not Active |  |  |  | 
CCCC(CCC)C(=O)O [VALPROIC ACID] | Not Active | Not Active | Not Active | Not Active | Not Active | Not Active | Not Active | Not Active | Not Active |  |  |  | 
CCC1=C[C@@H]2CN(C1)Cc1c([nH]c3ccccc13)[C@@](C(=O)OC)(c1cc3c(cc1OC)N(C)[C@H]1[C@@](O)(C(=O)OC)[C@H](OC(C)=O)[C@]4(CC)C=CCN5CC[C@]31[C@@H]54)C2 [VINORELBINE] | Not Active | Not Active | Not Active | Not Active | Not Active | Not Active | Not Active | Not Active | Not Active |  |  |  | 
CADMIUM DICHLORIDE | Not Active | Not Active | Not Active | Not Active | Not Active | Not Active | Not Active | Not Active | Not Active |  | Not Active | Not Active | Not Active

— ChEMBL document CHEMBL1909046, “DrugMatrix in vitro pharmacology data”
